Test results reported in patent publication US20080200454A1, “CARBON-LINKED TETRAHYDRO-PYRAZOLO-PYRIDINE MODULATORS OF CATHEPSIN S” (priority 2007, published 2008).
pIC50: −log10 of the molar value. Read-outs that look alike come from different tables or passages of the source. Each block holds one compound with its values, some of them ahead of it.

Biological target: Recombinant human cathepsin S (CatS) (Homo sapiens, UniProt P25774)
Experiment: Recombinant human cathepsin S (CatS) inhibition assay, fluorogenic substrate Z-Valine-Valine-Arginine-AMC;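 note: Baculovirus-expressed CatS in pH 5.0 sodium acetate buffer with DTT and NaCl, fluorescence read each minute over 20 min, inhibition derived from rate slope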

Recombinant human cathepsin S (CatS), sequence (P25774 115-331): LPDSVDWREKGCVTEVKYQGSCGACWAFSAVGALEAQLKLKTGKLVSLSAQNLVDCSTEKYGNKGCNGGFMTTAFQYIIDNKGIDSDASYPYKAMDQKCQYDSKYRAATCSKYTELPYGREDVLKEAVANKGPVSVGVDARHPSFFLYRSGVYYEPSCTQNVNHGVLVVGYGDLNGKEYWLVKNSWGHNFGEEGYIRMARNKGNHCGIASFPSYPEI

Compound: CC(C)NCc1cc(C#Cc2cc(-c3nn(CCCN4CCOC[C@@H]4C)c4c3CN(C(=O)C(N)=O)CC4)ccc2Cl)ccc1Cl [Example 619, 2-(3-{4-Chloro-3-[(4-chloro-3-{[(1-methylethyl)amino]methyl}phenyl)ethynyl]phenyl}-1-{3-[(3S)-3-methylmorpholin-4-yl]propyl}-1,4,6,7-tetrahydro-5H-pyrazolo[4,3-c]pyridin-5-yl)-2-oxoacetamide]
pIC50 (CatS IC50): 7.70

pIC50: 6.82
Compound: C[C@@H]1COCCN1CCCn1nc(-c2ccc(Cl)c(C#Cc3ccc(CNCc4ccc(Cl)cc4)cc3)c2)c2c1CCN(C(=O)C(N)=O)C2 [Example 620, 2-(3-{4-Chloro-3-[(4-{[(4-chlorobenzyl)amino]methyl}phenyl)ethynyl]phenyl}-1-{3-[(3R)-3-methylmorpholin-4-yl]propyl}-1,4,6,7-tetrahydro-5H-pyrazolo[4,3-c]pyridin-5-yl)-2-oxoacetamide]

pIC50 (read-out: CatS IC50, Table 4, average of results obtained): 5.13
Compound: (2S)-1-(4,4′-Bipiperidin-1-yl)-3-[3-{4-chloro-3-[3-(diethylamino)prop-1-yn-1-yl]phenyl}-5-(methylsulfonyl)-4,5,6,7-tetrahydro-1H-pyrazolo[4,3-c]pyridin-1-yl]propan-2-ol [Example 471]
